One assay has as its system FFD mice. In words: Total liver cholesterol content in FFD mouse model of NASH. In kind it is in vivo, male C57BL/6 mice. Conditions: Formula (I) 0.15% admixture in diet, Formula (III) 10 mg/kg PO QD, months 7-10. How it is done: The following study was conducted to evaluate the efficacy of the combination of an ASK1 inhibitor and an FXR agonist in a mouse model of non-alcoholic steatohepatitis (NASH), relative to the efficacy of the individual agents alone in the model. NASH was induced in male C57BL/6 mice by chronic administration of a “fast food” diet (FFD) high in saturated fats, cholesterol and sugars for a total of 10 months, whereas lean control animals were maintained on a normal chow diet. A NASH phenotype was established in FFD mice compared to control mice by 7 months, and was characterized by obesity, hypercholesterolemia, and AST/ALT elevation; and by histological features of NASH such as hepatocellular macrovesicular steatosis and ballooning degeneration. […] Endpoint analyses included morphometric quantification of liver steatosis (% of steatotic area), liver cholesterol content, serum ALT/AST levels, serum bile acid levels, and nanostring evaluation of gene expression. […] After centrifugation, an aliquot of the organic upper layer, containing cholesterol and cholesterol esters, was analyzed. […] The peak area of the m/z 369 [M-H2O]+→161+ product ion of cholesterol was measured against the peak area of the cholesterol-D6 product ion of m/z 375 [M-H2O]+→167+. […]

The next assay deals with CDHFD/NaNO2 rats. In words: Quantitative IHC of the myofibroblast marker desmin in liver, CDHFD/NaNO2 rat model of NASH. Conditions: for liver % desmin marker area: mean±SEM, vehicle-treated CDHFD/NaNO2 rats 10.3±0.8%, healthy control 0.7±0.1%; for reduction of liver desmin staining: vs vehicle-treated CDHFD/NaNO2 rats, Formula (I) 0.2% in diet, Formula (III) 30 mg/kg/day, week 4 to 14. In kind it is in vivo, male Wistar rats. How it is done: The following study was conducted to evaluate the efficacy of the combination of an ASK1 inhibitor and an FXR agonist in a rodent model of non-alcoholic steatohepatitis (NASH), relative to the efficacy of the individual agents alone in the model. NASH was induced in male Wistar rats by administration of a choline-deficient high fat diet (CDHFD) combined with the chronic administration of sodium nitrite (CDHFD/NaNO2). The model capitalizes on the “two hit theory” of NASH by inducing both metabolic dysfunction (CDHFD) and oxidative stress (NaNO2) in the liver to result in hepatic fibrosis that is similar in character and severity to that seen in patients with advanced NASH. Rats were fed CDHFD for a total of 14 weeks and were administered NaNO2 from week 4 to 14. The compound of Formula (III) (given as admixture in diet, adjusted to deliver 30 mg/kg/day), compound of Formula (I) (administered as a 0.2% admixture in diet), or vehicle was administered from week 4 to 14. The following endpoints were assessed at the completion of the 14 week study: i) liver fibrosis measured by liver hydroxyproline (OHP) content and by quantitative morphometric analysis of collagen content by Picosirius red (PSR) staining; ii) myofibroblast activation in liver sections as measured by quantitative IHC of the myofibroblast marker desmin; and, iii) Col1a1 and Timp1 in liver tissue measured by RT-PCR. All CDHFD/NaNO2 animals were fed a choline-deficient high-fat diet (CDHFD; Research Diets, Inc) for 14 weeks and were also administered intraperitoneal injections of NaNO2 (3 injections per week; Sigma Aldrich #31443) at a dose of 25 mg/kg (from week 4 to 10) and at a dose of 12.5 mg/kg (from week 10 to 14). Formula (III) (given as admixture in the CDHFD diet, adjusted to deliver 30 mg/kg/day, n=10 animals per group) and Formula (I) (given as a 0.2% admixture in the CDHFD diet, n=10 per group) were administered drug from week 4 to 14. Vehicle control animals were administered the same CDHFD diet with no drug added (Vehicle; n=10 animals per group) from week 4 to 14. […] On the final day of study, rats received a single oral gavage of either Formula (I) or Formula (III) at a dose of 30 mg/kg, four hours before animals were euthanized and tissues were collected for analyses. All endpoints were assessed at the completion of the 14 week study protocol. Whole slide images of Picrosirius Red (PSR) and Desmin stained slides were captured using a Leica AT2 scanner at 40× magnification. […] Quantitative image analysis was performed on the whole slide-scan images using Definiens Tissue Studio Architect XD (Definiens Inc.) to determine the extent and intensity of PSR and Desmin. […] The total PSR-stained area and Desmin IHC staining were measured and expressed as a percentage of total liver area stained.

Molecules are shown by their SMILES.

In the case of `O=C(Nc1cccc(-c2nncn2C2CC2)c1)c1cc(-n2cnc(C3CC3)c2)ccn1` [Formula (I)], the “reduction of liver cholesterol content” value in the assay on FFD mice worked out at 74%. For the same compound, in the assay on CDHFD/NaNO2 rats, the “liver % desmin marker area” value was 5.6±0.7% and the “reduction of liver desmin staining” value is recorded as 46%.
The like results for `O=C(O)c1ccnc(N2CC(O)(c3ccc(OCc4c(-c5c(Cl)cccc5Cl)noc4C4CC4)cc3Cl)C2)c1` [Formula (III)] were, in that order, 36%, 5.9±0.7% and 43%.

For the origin of these results see patent publication US20180133203A1, “METHODS OF TREATING LIVER DISEASE” (Gilead Sciences, Inc., priority 2016, published 2018).
